# Experimental data: ChEMBL document CHEMBL4308841, “Synthesis, in vitro antiproliferative activity, and kinase inhibitory effects of pyrazole-containing diarylureas and diarylamides” (Eur J Med Chem, 2018)
# Tests used:
# A549 = assay: Growth inhibition of human A549/ATCC cells incubated for 48 hrs by sulforhodamine B assay; type: functional, cell-based; conditions: A549, 48 h
# NCI-H460 = assay: Growth inhibition of human NCI-H460 cells incubated for 48 hrs by sulforhodamine B assay; type: functional, cell-based; conditions: NCI-H460, 48 h
# SNB-75 = assay: Growth inhibition of human SNB75 cells incubated for 48 hrs by sulforhodamine B assay; type: functional, cell-based; conditions: SNB-75, 48 h
# U-251 = assay: Growth inhibition of human U251 cells incubated for 48 hrs by sulforhodamine B assay; type: functional, cell-based; conditions: U-251, 48 h
# 786-0 [1] = assay: Growth inhibition of human 786-0 cells incubated for 48 hrs by sulforhodamine B assay; type: functional, cell-based; conditions: 786-0, 48 h
# A498 = assay: Growth inhibition of human A498 cells incubated for 48 hrs by sulforhodamine B assay; type: functional, cell-based; conditions: A498, 48 h
# RXF 393 [2] = assay: Growth inhibition of human RXF393 cells incubated for 48 hrs by sulforhodamine B assay; type: functional, cell-based; conditions: RXF 393, 48 h
# UO-31 = assay: Growth inhibition of human UO31 cells incubated for 48 hrs by sulforhodamine B assay; type: functional, cell-based; conditions: UO-31, 48 h
# NCI-H522 [3] = assay: Growth inhibition of human NCI-H522 cells assessed as cell growth at 0.01 uM incubated for 48 hrs by sulforhodamine B assay relative to control; type: functional; conditions: NCI-H522, 48 h, read-out: Activity
# COLO 205 = assay: Growth inhibition of human COLO205 cells assessed as cell growth at 0.01 uM incubated for 48 hrs by sulforhodamine B assay relative to control; type: functional; conditions: COLO 205, 48 h, read-out: Activity
# HCT-15 = assay: Growth inhibition of human HCT15 cells assessed as cell growth at 0.01 uM incubated for 48 hrs by sulforhodamine B assay relative to control; type: functional; conditions: HCT-15, 48 h, read-out: Activity
# SK-MEL-2 = assay: Growth inhibition of human SK-MEL-2 cells assessed as cell growth at 0.01 uM incubated for 48 hrs by sulforhodamine B assay relative to control; type: functional; conditions: SK-MEL-2, 48 h, read-out: Activity
# SK-OV-3 [4] = assay: Growth inhibition of human SKOV3 cells assessed as cell growth at 0.01 uM incubated for 48 hrs by sulforhodamine B assay relative to control; type: functional; conditions: SK-OV-3, 48 h, read-out: Activity
# RXF 393 [5] = assay: Growth inhibition of human RXF393 cells assessed as cell growth at 0.01 uM incubated for 48 hrs by sulforhodamine B assay relative to control; type: functional; conditions: RXF 393, 48 h, read-out: Activity
# Hs-578T [6] = assay: Growth inhibition of human Hs578T cells assessed as cell growth at 0.01 uM incubated for 48 hrs by sulforhodamine B assay relative to control; type: functional; conditions: read-out: Activity
# HL-60(TB) = assay: Growth inhibition of human HL-60(TB) cells assessed as cell growth at 0.1 uM incubated for 48 hrs by sulforhodamine B assay relative to control; type: functional; conditions: HL-60, 48 h, read-out: Activity
# NCI-H23 = assay: Growth inhibition of human NCI-H23 cells assessed as cell growth at 0.1 uM incubated for 48 hrs by sulforhodamine B assay relative to control; type: functional; conditions: NCI-H23, 48 h, read-out: Activity
# SF-539 = assay: Growth inhibition of human SF539 cells assessed as cell growth at 0.1 uM incubated for 48 hrs by sulforhodamine B assay relative to control; type: functional; conditions: SF-539, 48 h, read-out: Activity
# ACHN = assay: Growth inhibition of human ACHN cells assessed as cell growth at 0.1 uM incubated for 48 hrs by sulforhodamine B assay relative to control; type: functional; conditions: read-out: Activity
# RXF 393 [7] = assay: Growth inhibition of human RXF393 cells assessed as cell growth at 0.1 uM incubated for 48 hrs by sulforhodamine B assay relative to control; type: functional; conditions: RXF 393, 48 h, read-out: Activity
# BT-549 = assay: Growth inhibition of human BT549 cells assessed as cell growth at 0.1 uM incubated for 48 hrs by sulforhodamine B assay relative to control; type: functional; conditions: BT-549, 48 h, read-out: Activity
# SK-OV-3 [8] = assay: Growth inhibition of human SKOV3 cells assessed as cell growth at 1 uM incubated for 48 hrs by sulforhodamine B assay relative to control; type: functional; conditions: SK-OV-3, 48 h, read-out: Activity
# 786-0 [9] = assay: Growth inhibition of human 786-0 cells assessed as cell growth at 1 uM incubated for 48 hrs by sulforhodamine B assay relative to control; type: functional; conditions: 786-0, 48 h, read-out: Activity
# DU-145 = assay: Growth inhibition of human DU145 cells assessed as cell growth at 1 uM incubated for 48 hrs by sulforhodamine B assay relative to control; type: functional; conditions: DU-145, 48 h, read-out: Activity
# RPMI-8226 = assay: Growth inhibition of human RPMI8226 cells assessed as cell growth at 100 uM incubated for 48 hrs by sulforhodamine B assay relative to control; type: functional; conditions: RPMI-8226, 48 h, read-out: Activity
# NCI-H522 [10] = assay: Growth inhibition of human NCI-H522 cells assessed as cell growth at 100 uM incubated for 48 hrs by sulforhodamine B assay relative to control; type: functional; conditions: NCI-H522, 48 h, read-out: Activity
# SW-620 = assay: Growth inhibition of human SW620 cells assessed as cell growth at 100 uM incubated for 48 hrs by sulforhodamine B assay relative to control; type: functional; conditions: SW-620, 48 h, read-out: Activity
# Hs-578T [11] = assay: Growth inhibition of human Hs578T cells assessed as cell growth at 100 uM incubated for 48 hrs by sulforhodamine B assay relative to control; type: functional; conditions: read-out: Activity
# [12] = read-out: LC50 (the source's name)
# [13] = read-out: pLC50 (the source's name) (converted)
smiles,measurement,setting,value
COc1cc(Cl)cc(-c2nn(-c3cccc(NC(=O)Nc4ccc(Cl)c(C(F)(F)F)c4)c3)cc2-c2ccncc2)c1,IC50,A549,0.68 µM
same,GI50,A549; read-out: GI50,0.676 µM
same,CC50,A549; [12],4.32 µM
same,TGI,A549; read-out: TGI,10.6 µM
same,GI50,A549; read-out: pGI50 (converted),0.676 µM
same,CC50,A549; [13],46.8 µM
same,TGI,A549; read-out: pTGI (converted),10.7 µM
same,GI50,NCI-H460; read-out: GI50,0.77 µM
same,CC50,NCI-H460; [12],4.48 µM
same,TGI,NCI-H460; read-out: TGI,40 µM
same,CC50,NCI-H460; [13],44.7 µM
same,GI50,SNB-75; read-out: GI50,1.77 µM
same,CC50,SNB-75; [12],> 100 µM
same,TGI,SNB-75; read-out: TGI,11.1 µM
same,GI50,SNB-75; read-out: pGI50 (converted),1.78 µM
same,CC50,SNB-75; [13],> 100 µM
same,TGI,SNB-75; read-out: pTGI (converted),11.2 µM
same,IC50,U-251,0.73 µM
same,GI50,U-251; read-out: GI50,0.729 µM
same,CC50,U-251; [12],5 µM
same,TGI,U-251; read-out: TGI,21.1 µM
same,GI50,U-251; read-out: pGI50 (converted),0.724 µM
same,CC50,U-251; [13],5.01 µM
same,TGI,U-251; read-out: pTGI (converted),2.09 µM
same,GI50,786-0 [1]; read-out: GI50,1.59 µM
same,CC50,786-0 [1]; [12],15.2 µM
same,TGI,786-0 [1]; read-out: TGI,42.7 µM
same,GI50,786-0 [1]; read-out: pGI50 (converted),1.58 µM
same,CC50,786-0 [1]; [13],15.1 µM
same,TGI,786-0 [1]; read-out: pTGI (converted),9.77 µM
same,GI50,A498; read-out: GI50,2.58 µM
same,CC50,A498; [12],57.6 µM
same,TGI,A498; read-out: TGI,14.4 µM
same,GI50,A498; read-out: pGI50 (converted),2.69 µM
same,CC50,A498; [13],57.5 µM
same,TGI,A498; read-out: pTGI (converted),4.27 µM
same,LC50,RXF 393 [2],28.2 µM
same,GI50,RXF 393 [2]; read-out: GI50,1.71 µM
same,TGI,RXF 393 [2]; read-out: TGI,44.2 µM
same,GI50,RXF 393 [2]; read-out: pGI50 (converted),1.7 µM
same,TGI,RXF 393 [2]; read-out: pTGI (converted),9.33 µM
same,IC50,UO-31,1.66 µM
same,GI50,UO-31; read-out: GI50,1.56 µM
same,CC50,UO-31; [12],95.4 µM
same,TGI,UO-31; read-out: TGI,10.9 µM
same,GI50,UO-31; read-out: pGI50 (converted),1.66 µM
same,CC50,UO-31; [13],97.7 µM
same,TGI,UO-31; read-out: pTGI (converted),11 µM
same,growth at 0.01 µM,NCI-H522 [3],93%
same,growth at 0.01 µM,COLO 205,97%
same,growth at 0.01 µM,HCT-15,92%
same,growth at 0.01 µM,SK-MEL-2,102%
same,growth at 0.01 µM,SK-OV-3 [4],104%
same,growth at 0.01 µM,RXF 393 [5],97%
same,growth at 0.01 µM,Hs-578T [6],95%
same,growth at 0.1 µM,HL-60(TB),91%
same,growth at 0.1 µM,NCI-H23,90%
same,growth at 0.1 µM,SF-539,91%
same,growth at 0.1 µM,ACHN,57%
same,growth at 0.1 µM,RXF 393 [7],96%
same,growth at 0.1 µM,BT-549,99%
same,growth at 1 µM,SK-OV-3 [8],100%
same,growth at 1 µM,786-0 [9],74%
same,growth at 1 µM,DU-145,64%
same,growth at 100 µM,RPMI-8226,-32%
same,growth at 100 µM,NCI-H522 [10],-66%
same,growth at 100 µM,SW-620,-58%
same,growth at 100 µM,Hs-578T [11],-6%
